Results taken from patent publication US20230203058A1, “MACROCYCLIC DIAMINE DERIVATIVES AS ENT INHIBITORS FOR THE TREATMENT OF CANCERS, AND COMBINATION THEREOF WITH ADENOSINE RECEPTOR ANTAGONISTS” (ITEOS BELGIUM SA, priority 2020, published 2023).
Read-outs that look alike come from different tables or passages of the source.

How the values were obtained:
human T cells = assay: T cell stimulation assay (Example III, FIG. 1); type: cell-based; details: ATP 100 µM
Protocol: FIG. 1A depicts a graph of log concentration (M) versus percent proliferation. Purified human T cells were activated with anti-CD3/CD28 dynabeads in the presence of ATP (100 µM) as a source of adenosine for 96 h and then proliferation was assessed by CFSE dilution.
FIG. 1B depicts a graph of log concentration of ENT1 inhibitor (M) versus percent proliferation. Experiment performed as in FIG. A with the addition of HSA and AAG to the culture medium (final concentration 2 and 0.1%, respectively).
Peripheral blood mononuclear cells (PBMCs) were first isolated via centrifugation of fresh whole blood over Lymphoprep using SepMate-50 tubes (both from […] Technologies) according to the manufacturer’s instructions. Human T cells were then isolated from the PBMCs using the EasySep Human T cell Isolation Kit ([…] Technologies) according to the manufacturer’s instructions and the cells were cryopreserved in FBS with 10% DMSO until required.
Cryopreserved human T cells were thawed on the day of the experiment and resuspended in PBS with 10% FBS at approximately 1 × 10^7 cells/ml. This cell suspension was diluted 1:1 with 2 µM CFSE solution (ThermoFisher Scientific) in PBS and incubated for 5 minutes at room temperature. The labelling reaction was quenched by further addition of PBS with 10% FBS, and then the cells were washed into X-VIVO15 medium (Lonza) for use in the T cell assay.
CFSE-labelled T cells were plated at 2 × 10^4 cells per well in 384 well plates in the presence of ATP (100 µM, Sigma-Aldrich) as a source of adenosine. Activation was driven by the addition of Dynabeads Human T-Activator CD3/CD28 (ThermoFisher Scientific) at a ratio of 0,5 beads per T cell. ENT1 inhibitor molecules including the reference molecule dilazep (Tocris Bioscience) were added, the volume of the wells was adjusted to 50 µl with X-VIVO15 medium and the plates were cultured in a humidified incubator for 96 h at 37° C. with 5% CO2. In some experiments the culture was supplemented with human serum albumin (HSA) and alpha-1-acid glycoprotein (AAG, both Sigma-Aldrich) at final concentrations of 2 and 0,1%, respectively.
Analysis of proliferation via CSFE dilution was performed by flow cytometry using a BD LSR Fortessa with data analysis on FlowJo (BD Biosciences).

[1] = test system: naive CD4+ T cells cultured with allogeneic monocyte-derived dendritic cells; assay: Mixed leukocyte reaction assay (FIG. 2); type: cell-based, human; details: 300 µM ATP; for Rescue of proliferation of naive CD4 T cells in MLR / IFNγ production in MLR: Compound 2 50 nM; for Rescue of proliferation of naive CD4 T cells in MLR: Compound 11 500 nM; for IFNγ production in MLR: Compound 11 500 nM (FIG. 2B)
Protocol: FIG. 2A depicts a bar graph of percent proliferation normalized to no ATP. Naive CD4^+ T cells were cultured with allogeneic monocyte-derived dendritic cells at a ratio of 10:1 for 96 h in the presence of 300 µM ATP as a source of adenosine and the molecules Compound 2 (50 nM), Compound 11 (500 nM) or concentration-matched DMSO. Proliferation of T cells was assessed by CFSE dilution and normalized to the level observed in T cells activated in the absence of ATP.
FIG. 2B depicts two bar graphs, one showing TNF concentration (pg/mL), and the other showing IFNy (pg/mL). Experiment performed as described in FIG. 2A and supernatant sampled for analysis of cytokines by alphaLISA. **** = p < 0.0001; *** = p < 0.001; ** = p < 0.01 and * = p < 0.05; derived from one-way ANOVA with Tukey’s multiple comparisons test.
PBMCs were isolated from buffy coats via centrifugation of fresh whole blood over Lymphoprep using SepMate-50 tubes (both from […] Technologies) according to the manufacturer’s instructions. Naive CD4^+ T cells were isolated from the PBMCs using the Naive CD4^+ T cell Isolation Kit II, human (Miltenyi Biotec) according to the manufacturer’s instructions and cryopreserved in FBS with 10% DMSO until required. CD14^+ monocytes were also isolated from the PBMC samples using CD14 MicroBeads, human (MiltenyiBiotec) according to the manufacturer’s instructions and used on the day of isolation.
Monocytes were resuspended in RPMI (Lonza) with 10% FBS and cultured in a humidified incubator at 37° C. with 5% CO2 for 6 days in the presence of GM-CSF and IL-4 (R&D Systems), each at 50 ng/ml in 24 well plates. On day 3 of culture half of the medium was carefully removed and replaced with fresh medium containing 100 ng/ml of GM-CSF and IL-4.
On day 6 of culture monocyte-derived dendritic cells (MoDCs) were harvested and washed into X-VIVO15 medium containing 5% human male AB serum (Biowest) and 1 mM sodium pyruvate (Lonza). Naive CD4^+ T cells from a different donor were thawed and CFSE-labelled as described above and washed into the same medium as the MoDCs. Finally, 1 × 10^4 MoDCs were cultured with 1 × 10^5 naive CD4^+ T cells in the presence of ATP (Sigma-Aldrich), uridine or uracil in 96 round well bottom plates for 72 h in a humidified incubator at 37° C. with 5% CO2.
Analysis of proliferation of CD4 T cells via CSFE dilution was performed by flow cytometry using a BD LSR Fortessa with data analysis on FlowJo (BD Biosciences). Cytokines were analysed by alphaLISA (Perkin Elmer) according to the manufacturer’s instructions.

hERG ion channel = molecular target: T1, hERG ion channel (Homo sapiens, UniProt Q12809); assay: hERG ion channel inhibition (Patchliner automated patch-clamp, CHO cells); type: cell-based; details: whole-cell, room temperature, 6-point curve up to 100 µM
T1 construct: Chinese Hamster Ovary cell lines stably expressing the full-length ion channel; expressed in transfected cells
Protocol: The compounds were tested for inhibition of hERG ion channel. 6-Point concentration-response curves were generated on the Patchliner automated patch-clamp using serial dilutions from a maximum test concentration of 100 µM.
Compounds were solubilised to 33 mM in DMSO before dilution in HBPS to 100 µM. 6-Point concentration-response curves were generated using serial dilutions from the top test concentration. Electrophysiological recordings were made from a Chinese Hamster Ovary cell lines stably expressing the full-length ion channel. Single cell ionic currents were measured in whole-cell configuration at room temperature (21-23° C.) using a Patchliner (Nanion Technologies). The internal solution for hERG contained (mM): 120 KF, 20 KCl, 10 EGTA, 10 HEPES and was buffered to pH 7.3. The external solution (HEPES-buffered saline, HBPS) contained (mM): 138 NaCl, 4.5 KCl, 1.8 CaC12, 1.0 MgC12, 10 HEPES, 10 glucose, buffered to pH7.4. Cells were clamped at a holding potential of -80 mV before a depolarising step appropriate for the hERG channel. Currents were measured from the step and referenced to the holding current. Compounds were incubated for 90 seconds. Concentration-response curves were generated by cumulative addition of compound with concentrations low to high. In all cases, steady-state inhibition was achieved before the next concentration of compound was added.
IC50 values were obtained from a 4-parameter logistic fit of the concentration-response data: […]

[2] = anti-CD3/CD28 dynabeads, 96 h (FIG. 1A), read-out: IC50 of restoration of T cell proliferation
[3] = with HSA 2% and AAG 0,1% (FIG. 1B), read-out: IC50 of restoration of T cell proliferation under high protein binding conditions

T1 sequence (Q12809 whole entry): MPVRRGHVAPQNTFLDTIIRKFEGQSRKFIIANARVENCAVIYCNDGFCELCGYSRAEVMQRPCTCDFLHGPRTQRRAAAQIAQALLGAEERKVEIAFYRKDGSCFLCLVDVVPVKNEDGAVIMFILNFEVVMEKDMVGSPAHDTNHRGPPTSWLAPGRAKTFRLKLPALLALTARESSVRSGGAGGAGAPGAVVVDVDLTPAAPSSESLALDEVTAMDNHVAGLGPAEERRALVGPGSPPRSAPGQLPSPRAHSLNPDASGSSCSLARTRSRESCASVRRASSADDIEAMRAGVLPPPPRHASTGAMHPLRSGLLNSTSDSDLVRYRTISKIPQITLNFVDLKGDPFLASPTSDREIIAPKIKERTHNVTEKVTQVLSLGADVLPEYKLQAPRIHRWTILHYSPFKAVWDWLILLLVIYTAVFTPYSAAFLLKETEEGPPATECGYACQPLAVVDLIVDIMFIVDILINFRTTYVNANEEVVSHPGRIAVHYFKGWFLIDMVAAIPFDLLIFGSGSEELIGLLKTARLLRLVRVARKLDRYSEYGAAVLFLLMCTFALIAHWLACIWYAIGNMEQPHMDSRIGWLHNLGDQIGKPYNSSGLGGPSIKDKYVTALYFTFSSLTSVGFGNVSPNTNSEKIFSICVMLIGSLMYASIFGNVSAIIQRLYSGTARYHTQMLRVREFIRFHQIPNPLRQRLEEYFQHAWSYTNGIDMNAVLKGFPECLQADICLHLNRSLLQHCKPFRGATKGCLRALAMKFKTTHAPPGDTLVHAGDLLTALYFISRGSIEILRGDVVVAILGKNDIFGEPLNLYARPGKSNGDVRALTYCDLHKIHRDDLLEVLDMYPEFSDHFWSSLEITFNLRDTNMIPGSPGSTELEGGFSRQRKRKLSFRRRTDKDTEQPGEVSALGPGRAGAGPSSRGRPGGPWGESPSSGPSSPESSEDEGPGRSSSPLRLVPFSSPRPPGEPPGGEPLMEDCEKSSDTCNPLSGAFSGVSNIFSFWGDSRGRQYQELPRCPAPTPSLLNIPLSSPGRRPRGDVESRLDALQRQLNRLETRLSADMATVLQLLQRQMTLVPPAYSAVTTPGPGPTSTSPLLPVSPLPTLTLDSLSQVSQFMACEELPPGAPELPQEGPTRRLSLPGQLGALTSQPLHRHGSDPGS

Structure (SMILES) | IC50 (human T cells; [2]) [nM] | IC50 (human T cells; [3]) [nM] | Rescue of proliferation of naive CD4 T cells in MLR [1] | IFNγ production in MLR [1] | IC50 (hERG ion channel) [nM] | Production of TNF in MLR ([1]; Compound 2 50 nM (FIG. 2B))
COc1cc(C(=O)OC2CCCOc3cc(cc(OC)c3OC)C(=O)N(C)CCCN3CCCN(CC2)CC3)cc(OC)c1OC (stereo not shown) [Compound 11, 74,75-dimethoxy-5-methyl-6-oxo-8-oxa-5-aza-1(1,4)-diazepana-7(1,3)-benzenacyclotetradecaphane-12-yl 3,4,5-trimethoxybenzoate] | 7 | 125 | weaker restoration | smaller effect | – | –
COc1cc(C(=O)O[C@H]2CCCOc3cc(cc(OC)c3OC)C(=O)OCCCN3CCCN(CC2)CC3)cc(OC)c1OC [Compound 2, (12S)-74,75-dimethoxy-6-oxo-5,8-dioxa-1(1,4)-diazepana-7(1,3)-benzenacyclotetradecaphane-12-yl 3,4,5-trimethoxybenzoate] | 0.3 | 2 | near complete rescue | significant and consistent increase | 2500 | clear restoration with Compound 2, even beyond the control level
